# From patent US8114843B2, “Photoreactive regulator of protein function and methods of use thereof” (The Regents of the University of California, priority 2005, dated 2012)
# Assays:
# wild-type Shaker (E422) = biological target: T1, wild-type Shaker (E422) (Drosophila melanogaster, UniProt P08510, DEL6-46); test: PAL photoswitching, whole-cell patch clamp in HEK293 cells; assay type: cell-based; settings: n=6
# T1 construct: expressed in transfected cells; host or cells: HEK293
# Method: (§1) Cell culture and transfection. HEK293 cells were grown in DMEM containing 5% fetal bovine serum, at 37° C., 7% CO2. For electrophysiology, cells were plated at 12×10^5 cells/cm^2 on poly-L-lysine coated coverslips and transfected using the calcium phosphate method. Recordings were performed 24-36 hours after transfection.
# (§2) PAL attachment. HEK293 and hippocampal cells were rinsed in extracellular solution containing in mM: 138 NaCl, 1.5 KCl, 1.2 MgCl2, 2.5 CaCl2, 5 HEPES, 10 glucose and incubated at 37° C. in the dark with 200-250 μM PAL for 15 minutes. For slices, AAQ was diluted to 200 μM in aCSF and treatment was performed in the dark at room temperature for 10 minutes.
# (§3) Electrophysiological recording. Recordings from HEK293 and hippocampal neurons were made in the whole-cell patch clamp configuration using a PC-501A amplifier (Warner Instruments). Pulse protocols and measurements were carried out with pCLAMP and a Digidata 1322 interface (Axon Instruments). For voltage-clamp experiment, cells were held at −70 mV. Data was recorded at 20 kHz and filtered at 2 kHz. Recording pipettes with 2.5-4 MΩ resistance were filled with intracellular solution containing in mM: 10 NaCl, 135 K-gluconate, 10 HEPES, 2 MgCl2, 2 MgATP, 1 EGTA, pH 7.4.
# (§4) Illumination was provided using a xenon lamp (Sutter Instruments) with narrow band pass filters (380 BP10 for UV and 500 BP5 for visible light respectively). Excitation filters were changed using a lambda 10-2 filter changer (Sutter Instruments) controlled via pCLAMP software.
# (§5) Percent photoswitching was defined as the difference between current in UV and visible light divided by current in UV. All data shown in bar graphs are averages±standard error of the mean.
# [1] = biological target: T2, Shaker channel with engineered cysteine (E422C) (Drosophila melanogaster, UniProt P08510, DEL6-46/E422C); test: as above; assay type: cell-based; settings: n=6
# T2 construct: expressed in transfected cells; host or cells: HEK293
# Method: as §1, §2, §3, §4, §5
# [2] = system: voltage-gated outward current (endogenous K+ channels) in cultured hippocampal neurons; test: Photocontrol of K+ current in cultured hippocampal neurons; assay type: cell-based, rat; settings: 200 μM, 15 min in the dark
# Method: Hippocampal neurons were prepared from neonatal Sprague-Dawley rats according to standard procedures (Goslin) and grown on poly-L-lysine coated coverslips in MEM supplemented with 5% fetal bovine serum, B27 (Invitrogen), glutamine and serum extender (BD Biosciences). Animal care and experimental protocols were approved by the UC Berkeley Animal Care and Use Committee. Recordings were performed 9-16 days after plating. The Shaker construct also contains an N-terminal deletion (Δ6-46) to minimize fast inactivation.
# as §2
# (§6) Electrophysiological recording. Recordings from HEK293 and hippocampal neurons were made in the whole-cell patch clamp configuration using a PC-501A amplifier (Warner Instruments). Pulse protocols and measurements were carried out with pCLAMP and a Digidata 1322 interface (Axon Instruments). For voltage-clamp experiment, cells were held at −70 mV. Data was recorded at 20 kHz and filtered at 2 kHz. […]
# rat retina = test: AAQ injection into the rat eye (ERG, retinal toxicity); assay type: in vivo
# Method: Rats were dark-adapted overnight, and the entire procedure was done under very dim red light. Rats were anesthetized and placed in a standard electroretinogram (ERG) setup. Recording electrodes were embedded in contact-like cups, which were mounted onto each eye with a conductive adherent fluid. Reference electrodes were placed in the mouth. A light source emitted brief flashes of white light at various intensities. The electrical response of the retina to each light flash was recorded; three trials per intensity were averaged together. Under normal conditions, the ERG will consist of a small downward deflection (A-wave), which reflects the activity of photoreceptors, and a larger upward deflection (B-wave), which reflects the activity of bipolar cells.
# [3] = system: transient inward current (voltage-gated Na+ and Ca2+ currents) in neurons; test: Voltage-clamp of transient inward current in PAL-treated neurons; assay type: cell-based, rat; settings: Cs+ in the patch pipette
# Method: as §6
# Purkinje neurons = test: Loose-patch extracellular recording in cerebellar slices; assay type: cell-based, rat; settings: 200 μM for 10 minutes; full-field 360 nm light; n=5
# Method: Brain Slice Preparation. Parasagittal cerebellar slices were prepared using standard techniques approved by the UCLA Animal Care Committee. […] PAL attachment. […] For cerebellar slices, neuronal cell bodies were visualized using an upright microscope with a 40× water immersion lens and equipped with an infrared-DIC enhancement. Loose-patch extracellular recordings were performed using an Axopatch 200B amplifier (Axon Instruments). Electrophysiological recordings were filtered at 1 KHz and digitized at 2-4 KHz. Pipettes were typically 1.4-2.0 MΩ for recordings from PNs and 3.0-3.5 MΩ for interneurons and filled with aCSF. […] All recordings were performed at room temperature. […] Excitation filters were changed using a lambda 10-2 filter changer (Sutter Instruments) controlled via pCLAMP software.
# T2 sequence (P08510 other isoform, or with tags, fused parts or gaps DEL6-46/E422C): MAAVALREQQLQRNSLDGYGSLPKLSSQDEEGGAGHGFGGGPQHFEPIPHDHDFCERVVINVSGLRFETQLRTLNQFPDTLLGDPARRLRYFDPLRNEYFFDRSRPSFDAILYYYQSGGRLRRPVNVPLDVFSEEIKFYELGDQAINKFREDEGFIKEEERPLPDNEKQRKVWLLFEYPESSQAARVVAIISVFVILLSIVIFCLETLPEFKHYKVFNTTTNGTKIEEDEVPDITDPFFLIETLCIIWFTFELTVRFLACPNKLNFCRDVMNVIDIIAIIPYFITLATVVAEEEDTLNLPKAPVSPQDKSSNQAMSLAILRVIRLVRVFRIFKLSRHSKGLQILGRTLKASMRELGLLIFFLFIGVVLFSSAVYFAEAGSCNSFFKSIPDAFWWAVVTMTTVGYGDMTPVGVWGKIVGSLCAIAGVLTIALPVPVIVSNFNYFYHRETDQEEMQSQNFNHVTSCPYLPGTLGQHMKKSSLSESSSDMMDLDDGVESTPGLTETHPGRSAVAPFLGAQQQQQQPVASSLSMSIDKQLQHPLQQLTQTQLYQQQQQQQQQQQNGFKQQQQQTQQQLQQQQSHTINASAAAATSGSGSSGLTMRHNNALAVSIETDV
# T1 sequence (P08510 other isoform, or with tags, fused parts or gaps DEL6-46): as the sequence (P08510 other isoform, or with tags, fused parts or gaps DEL6-46/E422C) above, with C381E counted along it
smiles,measurement,setting,value
C=CC(=O)Nc1ccc(/N=N/c2ccc(NC(=O)C[N+](CC)(CC)CC)cc2)cc1 [AAQ],fraction of current that could be photoswitched,wild-type Shaker (E422),48±2%
same,fraction of current that could be photoswitched,[1],39±1%
same,percent of the outward current that could be photoswitched,[2],63±8%
same,toxic consequences on rat retina (ERG),rat retina; 7 days post injection,without toxic consequences
same,effects on retinal neurons after injection into the vitreous humor,rat retina; rat eye,no detectable deleterious effects
same,light-sensitivity of transient inward current,[3],does not become light-sensitive
same,increase in firing frequency,Purkinje neurons,42±12%
